In brackets after ≈: the same amount, converted by molar mass. Read-outs that look alike come from different tables or passages of the source.
Assays:
KB = settings: read-out: Cytotoxicities (IC50), KB; KB cell; earlier research work; cited from earlier work
Hep2,2,15 = settings: read-out: Cytotoxicities (IC50), Hep2,2,15, earlier research work; cited from earlier work
[1] = system: Hela: human cervix epitheloid carcinoma; experiment: In vitro anticancer assay (cytotoxicity), human solid tumor cells; settings: for IC50: Homo sapiens, HeLa, read-out: IC50 Values of Cytotoxicities, Hela
[2] = system: NCI (NCI-H661): human lung large cell carcinoma; experiment: as above; settings: for IC50 Values of Cytotoxicities, NCI: NCI (NCI-H661); for IC50: Homo sapiens, NCI-H661, read-out: IC50 Values of Cytotoxicities, NCI
Hepa: human hepatoma [3] = experiment: as above; settings: for IC50: Homo sapiens, HepA, read-out: IC50 Values of Cytotoxicities, Hepa
[4] = system: DLD (DLD-1): human colon adenocarcinoma; experiment: as above; settings: for IC50: Homo sapiens, DLD-1, read-out: IC50 Values of Cytotoxicities, DLD
[5] = system: human hepatoma Hep G2 cells; experiment: Cell cycle analysis by flow cytometry; type: cell-based; settings: 72 hrs
Protocol: Samples of 1×10^6 Hep G2 cells were plated on a 6 cm tissue culture dish, and the cells were allowed to recover 24 hrs before any treatment. Thereafter, DMSO or a test compound (1 μM, 10 μM or 50 μM) was added to the cells for 1 hr in complete medium at 37° C., washed twice with PBS, and incubated in fresh media for the incubation time. Cell were harvested with trypsin and washed twice with PBS. Samples were fixed in 70% ethanol and stored at 4° C. for at least 24 hrs and then washed once with Mcllvaine's buffer (0.2M Na2HPO4, 0.1M citric acid, pH=7.5) and once again with PBS. Samples were stained with PI (propidium iodide) staining solution (PBS containing 100 μg/ml, RNase A and 10 μg/ml PI [Sigma]), processed on a Coulter Elite flow cytometry, and the data analyzed with the Mutiplus AV program.
To obtain more information about the effect(s) of the acyclic enediynes according to this invention upon the growth of cells, human hepatoma Hep G2 cells or K-562 cells were used, and the growth characteristic of said cells were measured subsequent to the treatment with a test compound.
1 μM or 10 μM of compound 5 was added to the cells, and after exposure to the compounds for 72 hrs, attached cells were analyzed by flow cytometry. The majority (71.5%) of control cells exposed to DMSO were in the G0-G1 phase of cell cycle, and only a small amount of cells was detected in either the S phase (22.7%) or G2/M (5.8%) phase. Moreover, after a 72 hrs treatment with compound 5 (1 and 10 μM), cells progressed to the S phase and the majority of cell population was almost arrested at the S phase. Consistent with this cell cycle arrest, only 36.6% (1 μM) and 46.9% (10 μM) of the cells were found at the G0-G1 phase, 63.2% (1 μM) and 53.0% (10 μM) in S phase, and 0.2% (1 μM) and 0.1% (10 μM) in G2/M phase. However, the significant blockage of the Hep G2 cell cycle in S phase was observed and was induced by both concentrations (1 μM and 10 μM) of compound 5.

[6] = system: KB: human oral epidermoid carcinoma; experiment: In vitro anticancer assay (cytotoxicity), human solid tumor cells
Hepa: human hepatoma [7] = system: Hepa: human hepatoma
[8] = system: Hela: human cervix epitheloid carcinoma
topoisomerase I = target: T1, topoisomerase I (Homo sapiens, UniProt P11387); experiment: Topoisomerase I course assay, cleavage of supercoiled pGEM9zf(−) DNA, gel electrophoresis; type: biochemical; settings: 87 μM compound
T1 sequence (P11387 1-765): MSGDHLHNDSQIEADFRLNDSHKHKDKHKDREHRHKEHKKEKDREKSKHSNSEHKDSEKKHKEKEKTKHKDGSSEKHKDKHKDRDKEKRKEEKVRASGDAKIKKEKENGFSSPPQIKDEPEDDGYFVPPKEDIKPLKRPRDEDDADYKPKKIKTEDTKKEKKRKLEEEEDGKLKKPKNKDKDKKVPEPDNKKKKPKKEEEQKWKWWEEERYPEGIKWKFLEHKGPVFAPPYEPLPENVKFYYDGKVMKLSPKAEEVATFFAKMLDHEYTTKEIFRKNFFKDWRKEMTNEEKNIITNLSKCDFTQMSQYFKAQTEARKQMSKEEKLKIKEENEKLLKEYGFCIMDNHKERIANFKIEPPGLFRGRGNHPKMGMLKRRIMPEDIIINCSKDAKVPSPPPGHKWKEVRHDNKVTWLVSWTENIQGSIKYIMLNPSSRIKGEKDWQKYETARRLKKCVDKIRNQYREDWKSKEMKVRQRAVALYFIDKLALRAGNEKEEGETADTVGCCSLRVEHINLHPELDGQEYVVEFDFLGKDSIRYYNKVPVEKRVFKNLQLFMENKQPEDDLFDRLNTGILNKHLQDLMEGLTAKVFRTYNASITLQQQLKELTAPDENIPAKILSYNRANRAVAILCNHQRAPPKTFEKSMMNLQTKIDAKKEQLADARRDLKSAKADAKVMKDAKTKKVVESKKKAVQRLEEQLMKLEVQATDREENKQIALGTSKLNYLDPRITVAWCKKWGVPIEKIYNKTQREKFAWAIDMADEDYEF

Row | Compound | IC50 (KB) [µM] | IC50 (Hep2,2,15) [µM] | IC50 Values of Cytotoxicities, NCI [2] | IC50 Values of Cytotoxicities, DLD [4] | IC50 [1] [µg/mL] | IC50 [2] [µg/mL] | IC50 (Hepa: human hepatoma [3]) [µg/mL] | IC50 [4] [µg/mL] | further results
1 | N#Cc1ccccc1C#C/C=C\C#CCOC1CCCCO1 (stereo not shown) [Compound 1, 2-(7-(Tetrahydropyranyloxy)-3(Z)-hepten-1,5-diynyl)-benzonitrile] | 0.1 | > 10 | —* (“—” means IC50 >20 μg/ml) | 8.61 µg/mL |  |  |  |  | IC50 Values of Cytotoxicities, Hela [1]: 9.97 µg/mL; IC50 Values of Cytotoxicities, Hepa (Hepa: human hepatoma [3]): 14.26 µg/mL
2 | N#Cc1ccccc1C#C/C=C\C#CCCCOC1CCCCO1 (stereo not shown) [Compound 2, 2-(9-(Tetrahydropyranyloxy)-3(Z)-nonen-1,5-diynyl)-benzonitrile] | < 0.01 | > 10 | — (“—” means IC50 >20 μg/ml) | — (“—” means IC50 >20 μg/ml) |  |  |  |  | IC50 Values of Cytotoxicities, Hela [1]: 10.62 µg/mL; IC50 Values of Cytotoxicities, Hepa (Hepa: human hepatoma [3]): 14.66 µg/mL
3 | CCCCC#C/C=C\C#Cc1ccccc1C#N [Compound 3, 2-(3(Z)-Decen-1,5-diynyl)benzonitrile] | < 0.01 | 17 |  |  | > 20 | > 20 | 12.5 (≈ 53.5 µM) | 5.03 (≈ 21.6 µM) | 
4 | CCCCCC#C/C=C\C#Cc1ccccc1C#N [Compound 4, 2-(3(Z)-Undecen-1,5-diynyl)benzonitrile] | < 0.01 | > 10 |  |  | 6.38 (≈ 25.8 µM) | > 20 | 7.28 (≈ 29.4 µM) | > 20 | 
5 | N#Cc1ccccc1C#C/C=C\C#Cc1ccccc1 [Compound 5, 2-(6-phenyl-3(Z)-hexen-1,5-diynyl)benzonitrile] |  |  |  |  | > 20 | 7.01 (≈ 27.7 µM) | 1.09 (≈ 4.3 µM) | > 20 | cells at the G0-G1 phase ([5]; 1 μM): 36.6%; cells in G2/M phase ([5]; 1 μM): 0.2%; cells in S phase ([5]; 1 μM): 63.2%; cells at the G0-G1 phase ([5]; 10 μM): 46.9%; cells in G2/M phase ([5]; 10 μM): 0.1%; cells in S phase ([5]; 10 μM): 53.0%
6 | CCCCC#C/C=C\C#Cc1ccc(Cl)cc1 [Compound 13] |  |  | 8.00 µg/mL |  |  |  |  |  | IC50 Values of Cytotoxicities, KB [6]: — (“—” means IC50 >20 μg/ml); IC50 Values of Cytotoxicities, Hepa (Hepa: human hepatoma [7]): — (key: “—” means IC50 >20 μg/ml); IC50 Values of Cytotoxicities, Hela [8]: 9.83 µg/mL
7 | CCCCCCC#C/C=C\C#Cc1ccc(C(C)=O)cc1 [Compound 23, 4-(3-(Z)-Dodecen-1,5-diynyl)acetophenone] |  |  | 13.13 µg/mL | — (“—” means IC50 >20 μg/ml) |  |  |  |  | IC50 Values of Cytotoxicities, Hepa (Hepa: human hepatoma [7]): — (key: “—” means IC50 >20 μg/ml); inhibition of topo I (topoisomerase I): displayed inhibitory activities of topo I; IC50 Values of Cytotoxicities, Hela [8]: — (key: “—” means IC50 >20 μg/ml)

Source: patent publication US20050004211A1, “Pharmaceutical compositions comprising aryl-substituted acyclic enediyne compounds” (KAOHSIUNG MEDICAL UNIVERSITY, priority 2003, published 2005)
